In ChEMBL document CHEMBL4270577, “Synthesis, anticancer activity and molecular modeling studies of 1,2,4-triazole derivatives as EGFR inhibitors” (Eur J Med Chem, 2018):

Tests used:
[1] = target: Serine/threonine-protein kinase B-raf (Mus musculus, UniProt P28028, V600E); test: Inhibition of mouse full length GST-tagged BRAF V600E mutant using recombinant human His6-tagged MEK1 as substrate preincubated for 1 hr followed by substrate addition measured after 25 mins by ELISA
HOP-92 = test: Cytotoxicity against human HOP92 cells incubated for 48 hrs by sulforhodamine B assay; type: functional; conditions: HOP-92, 48 h
SK-MEL-2 = test: Cytotoxicity against human SK-MEL-2 cells incubated for 48 hrs by sulforhodamine B assay; type: functional; conditions: SK-MEL-2, 48 h
RPMI-8226 = test: Cytotoxicity against human RPMI8226 cells incubated for 48 hrs by sulforhodamine B assay; type: functional; conditions: RPMI-8226, 48 h
OVCAR-3 = test: Cytotoxicity against human OVCAR3 cells incubated for 48 hrs by sulforhodamine B assay; type: functional; conditions: OVCAR-3, 48 h
ACHN = test: Cytotoxicity against human ACHN cells incubated for 48 hrs by sulforhodamine B assay; type: functional
EKVX = test: Cytotoxicity against human EKVX cells incubated for 48 hrs by sulforhodamine B assay; type: functional
NCI-H226 = test: Cytotoxicity against human NCI-H226 cells incubated for 48 hrs by sulforhodamine B assay; type: functional; conditions: NCI-H226, 48 h
A549 = test: Cell cycle arrest in human A549 cells assessed as accumulation at G1 phase at 1.4 uM after 24 hrs by propidium iodide staining based flow cytometry (reference value: 67.52%); type: functional
OVCAR-4 = test: Cytotoxicity against human OVCAR4 cells incubated for 48 hrs by sulforhodamine B assay; type: functional; conditions: OVCAR-4, 48 h
U-251 = test: Cytotoxicity against human U251 cells incubated for 48 hrs by sulforhodamine B assay; type: functional; conditions: U-251, 48 h
HCT-15 = test: Cytotoxicity against human HCT15 cells incubated for 48 hrs by sulforhodamine B assay; type: functional; conditions: HCT-15, 48 h
SN12C = test: Cytotoxicity against human SN12C cells incubated for 48 hrs by sulforhodamine B assay; type: functional
MDA-MB-231 = test: Cytotoxicity against human MDA-MB-231 cells incubated for 48 hrs by sulforhodamine B assay; type: functional; conditions: MDA-MB-231, 48 h
UO-31 = test: Cytotoxicity against human UO31 cells incubated for 48 hrs by sulforhodamine B assay; type: functional; conditions: UO-31, 48 h
HCT-116 = test: Cytotoxicity against human HCT116 cells incubated for 48 hrs by sulforhodamine B assay; type: functional; conditions: HCT-116, 48 h
LOX IMVI = test: Cytotoxicity against human LOXIMVI cells incubated for 48 hrs by sulforhodamine B assay; type: functional
SF-295 = test: Cytotoxicity against human SF295 cells incubated for 48 hrs by sulforhodamine B assay; type: functional; conditions: SF-295, 48 h
KM12 = test: Cytotoxicity against human KM12 cells incubated for 48 hrs by sulforhodamine B assay; type: functional; conditions: KM12, 48 h
CAKI-1 = test: Cytotoxicity against human Caki1 cells incubated for 48 hrs by sulforhodamine B assay; type: functional; conditions: CAKI-1, 48 h
Tubulin (Homo sapiens) = Tubulin (Homo sapiens) (UniProt P68371+Q9H4B7+P0DPH7+P68366+Q13509+Q71U36+P04350+Q3ZCM7+P07437+P68363+Q9BQE3+Q6PEY2+Q13885+Q9BVA1+Q9BUF5); test: Inhibition of tubulin (unknown origin) polymerization assessed as polymerized tubulin level at 5 to 25 uM by fluorescence assay; type: protein-complex assay
Malme-3M = test: Cytotoxicity against human MALME-3M cells incubated for 48 hrs by sulforhodamine B assay; type: functional
SK-MEL-28 = test: Cytotoxicity against human SK-MEL-28 cells incubated for 48 hrs by sulforhodamine B assay; type: functional; conditions: SK-MEL-28, 48 h
IGROV-1 = test: Cytotoxicity against human IGROV1 cells incubated for 48 hrs by sulforhodamine B assay; type: functional; conditions: IGROV-1, 48 h
MCF7 = test: Cytotoxicity against human MCF7 cells incubated for 48 hrs by sulforhodamine B assay; type: functional; conditions: MCF7, 48 h
RXF 393 = test: Cytotoxicity against human RXF393 cells incubated for 48 hrs by sulforhodamine B assay; type: functional; conditions: RXF 393, 48 h
[2] = read-out: LC50 (the source's name)

Chain of Serine/threonine-protein kinase B-raf (P28028 whole entry, looked up, stated change not applied): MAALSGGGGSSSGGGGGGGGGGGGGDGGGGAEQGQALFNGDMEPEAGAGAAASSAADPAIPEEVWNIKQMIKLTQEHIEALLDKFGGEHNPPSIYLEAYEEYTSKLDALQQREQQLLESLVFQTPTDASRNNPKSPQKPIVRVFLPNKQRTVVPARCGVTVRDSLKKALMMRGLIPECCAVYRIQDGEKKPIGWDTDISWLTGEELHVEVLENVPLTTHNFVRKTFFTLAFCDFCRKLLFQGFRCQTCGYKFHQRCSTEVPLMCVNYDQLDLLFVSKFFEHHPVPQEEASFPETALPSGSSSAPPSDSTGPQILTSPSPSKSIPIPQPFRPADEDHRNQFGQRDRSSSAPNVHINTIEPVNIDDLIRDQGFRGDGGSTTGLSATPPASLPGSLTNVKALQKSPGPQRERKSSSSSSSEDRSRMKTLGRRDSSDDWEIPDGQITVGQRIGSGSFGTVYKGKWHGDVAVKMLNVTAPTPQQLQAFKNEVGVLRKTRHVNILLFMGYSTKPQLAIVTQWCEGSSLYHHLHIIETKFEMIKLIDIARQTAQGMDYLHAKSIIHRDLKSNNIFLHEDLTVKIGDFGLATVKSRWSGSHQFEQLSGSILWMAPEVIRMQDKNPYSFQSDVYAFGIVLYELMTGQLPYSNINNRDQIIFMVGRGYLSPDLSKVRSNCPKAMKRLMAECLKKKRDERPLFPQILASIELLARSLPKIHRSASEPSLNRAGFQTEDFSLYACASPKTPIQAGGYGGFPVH

Q: What does the source list for `COc1ccc(-c2nc3sc(-c4ccc(Cl)cc4)cn3n2)cc1`?
A: IC50 [1]: 4.7 µM; GI50 (HOP-92): 910 nM; TGI (HOP-92): 7.61 µM; CC50 (HOP-92; [2]): > 50 µM; GI50 (SK-MEL-2): > 50 µM; TGI (SK-MEL-2): > 50 µM; CC50 (SK-MEL-2; [2]): > 50 µM; GI50 (RPMI-8226): 3.67 µM; TGI (RPMI-8226): > 50 µM; CC50 (RPMI-8226; [2]): > 50 µM; GI50 (OVCAR-3): 1720 nM; TGI (OVCAR-3): 7.2 µM; CC50 (OVCAR-3; [2]): > 50 µM; GI50 (ACHN): 927 nM; TGI (ACHN): 2020 nM; CC50 (ACHN; [2]): 4.41 µM; GI50 (EKVX): 4.82 µM; TGI (EKVX): > 50 µM; CC50 (EKVX; [2]): > 50 µM; GI50 (NCI-H226): 11.1 µM; TGI (NCI-H226): > 50 µM; CC50 (NCI-H226; [2]): > 50 µM; Activity (A549): 58.11%; GI50 (OVCAR-4): 766 nM; TGI (OVCAR-4): 1630 nM; CC50 (OVCAR-4; [2]): 3.45 µM; GI50 (U-251): 1030 nM; TGI (U-251): 2290 nM; CC50 (U-251; [2]): 5.53 µM; GI50 (HCT-15): 24.5 µM; TGI (HCT-15): > 50 µM; CC50 (HCT-15; [2]): > 50 µM; GI50 (SN12C): 1840 nM; TGI (SN12C): > 50 µM; CC50 (SN12C; [2]): > 50 µM; GI50 (MDA-MB-231): 2060 nM; TGI (MDA-MB-231): 16.7 µM; CC50 (MDA-MB-231; [2]): > 50 µM; GI50 (UO-31): 1190 nM; TGI (UO-31): 4.51 µM; CC50 (UO-31; [2]): 30.6 µM; GI50 (HCT-116): 1210 nM; TGI (HCT-116): 3.48 µM; CC50 (HCT-116; [2]): > 50 µM; GI50 (LOX IMVI): > 50 µM; TGI (LOX IMVI): > 50 µM; CC50 (LOX IMVI; [2]): > 50 µM; GI50 (SF-295): 2810 nM; TGI (SF-295): 31.8 µM; CC50 (SF-295; [2]): > 50 µM; GI50 (KM12): 12.2 µM; TGI (KM12): > 50 µM; CC50 (KM12; [2]): > 50 µM; GI50 (CAKI-1): 1790 nM; TGI (CAKI-1): 8.92 µM; CC50 (CAKI-1; [2]): 48.9 µM; Activity (Tubulin (Homo sapiens)): 1510 a.u.; GI50 (Malme-3M): 2710 nM; TGI (Malme-3M): > 50 µM; CC50 (Malme-3M; [2]): > 50 µM; GI50 (SK-MEL-28): > 50 µM; TGI (SK-MEL-28): > 50 µM; CC50 (SK-MEL-28; [2]): > 50 µM; GI50 (IGROV-1): 1150 nM; TGI (IGROV-1): 8.13 µM; CC50 (IGROV-1; [2]): > 50 µM; GI50 (MCF7): 2620 nM; TGI (MCF7): > 50 µM; CC50 (MCF7; [2]): > 50 µM; GI50 (RXF 393): 5.99 µM; TGI (RXF 393): 39.7 µM; CC50 (RXF 393; [2]): > 50 µM
